Test results: patent publication US20250114331A1, “CONCURRENT TARGETING OF ONCOGENIC PATHWAYS TO ENHANCE CHEMOTHERAPY AND IMMUNOTHERAPY” (THE JOHNS HOPKINS UNIVERSITY, priority 2021, published 2025)
Where two headings read alike, the source gives them in different places.

Experiments:
[1] = system: H1299 and H1437 cells; assay: qRT-PCR of YAP1 and STAT3 pathway genes after drug treatment for 72 hours; format: cell-based, human
Protocol: qRT-PCR. The mRNA expression level of each gene was determined by qRT-PCR. […] We quantified the β-actin mRNA level to normalize the expression levels of the targeted genes. Each sample was tested in triplicate and run three times. Each graph shown in our figures indicates the average mRNA expression level of targeted genes compared with the β-actin expression level, with standard error of mean. To determine doses of these drugs that are effective for pathway inhibition, H1299 and H1437 cells were treated with verteporfin or S3I-201 for 72 hours.

[2] = system: H1437 xenografts; assay: H1437 xenograft treatment; format: in vivo, NSG mice; conditions: verteporfin 50 mg/kg i.p. three times a week; S3I-201 5 mg/kg i.p. every day
Text: For therapeutic experiments, 4- to 5-week-old NOD/SCID/IL2Ry−/− (NSG) mice were obtained from the Johns Hopkins Medical Institute's (Baltimore, MD) animal care facility. We injected H1299 cells (1×106) and H1437 cells (1×106), which were suspended in the mixture as described above, subcutaneously into both flanks. For the patient-derived xenograft (PDX) models, 13 PDX blocks (CTG0162, 0178, 0502, 0848, 1309, 1351, 1358, 1361, 1762, 1885, 2017, 2481, and 2708) were obtained from Champion Oncology. All these PDXs were established from primary lung adenocarcinoma tumors. The tumor tissues were cut into 4×2 mm pieces and implanted in the subcutaneous spaces of both flanks. When tumor volumes reached to 200+50 mm3, mice were randomly assigned to six experimental groups [control, chemo (cisplatin+gemcitabine), chemo+verteporfin, chemo+S3I-201, “all” (cisplatin+gemcitabine+verteporfin+S3I-201), and verteporfin+S3I-201] at 5 mice per group. Cisplatin (Sigma-Aldrich; #P4394), gemcitabine (Medkoo; #100410), S3I-201 (MedKoo; #202541), and verteporfin (Sigma-Aldrich; #1711461) were used to treat the mice. Cisplatin (2.5 mg/kg) and gemcitabine (120 mg/kg) were administrated via intraperitoneal injection once a week (22). […] Each tumor volume was measured every 3 days. Therapeutic efficacy was evaluated from percentage change of the tumor volume compared with the tumor size before treatment.

[3] = system: MB 49, UPPL595 and BBN975; assay: Cell proliferation, sphere formation and RT-qPCR of CSC markers in VP treated mouse UCB cell lines; format: cell-based; conditions: 1 μM
Protocol: Cell viability assay. Cell proliferation and viability were evaluated using alamarBlue™ Cell Viability Reagent (ThermoFischer Scientific). For cell proliferation assay, after cells (5×10^3/well) were seeded into 96-well plates with culture media containing 10% FBS, the optical density of each well was measured at desired time interval, following the manufacturers protocol. The absorbance was measured by a Spectra Max 250 Plate Reader (Molecular Devices). Cell viability were calculated as percentage over control. Sphere formation assay. Sphere formation was induced by culturing cells (2×10^4/well) in DMEM/Ham's F12 50/50 Mix (Mediatech) supplemented with B-27 (Life Technologies), 20 ng/mL FGF-basic (Peprotech), 20 ng/mL EGF (Peprotech). Cell culture was performed in ultra-low attachment 6 well plates (Corning, Lowell, USA) for 10 days. The medium was replaced every other day. Sphere formation was evaluated using the inverted phase-contrast microscope. RNA extraction and quantitative reverse transcriptase polymerase chain reaction (Q-RT-PCR). Total RNA from cell lines was isolated using the RNeasy Plus Mini Kit (Qiagen, Germantown, USA), according to the manufacturer's protocol. […] The expression levels were quantified relative to β-actin using the 2−ΔΔCt method.

[4] = system: MB49, UPPL596 and BBN 975; assay: Cell derived xenografts treated with verteporfin; format: in vivo, C57BL/6 mice
Protocol: In vivo xenograft assay and treatment. For in vivo xenograft, cells were suspended in 100 μL of a 1:1 mixture of serum-free DMEM and Cultrex Stem Cell Qualified Reduced Growth Factor Basement Membrane Extract (Trevigen, Gaithersburg, USA), and then injected subcutaneously into the both flanks of C57BL/6 mice for MB49/UPPL595/BBN975 cells. For treatment, animals will be randomized to different treatment groups of 5 mice after growth of tumors to 100 mm3. The potential drugs are anti-PD-L1 monoclonal antibody (B7-H1, Bio X Cell, West Lebanon, USA) and verteporfin (NedKoo, Morrisville, USA). Verteporfin (50 mg/kg) will be administered via i.p. every other day. Anti-PD-L1 monoclonal antibody and the corresponding isotype antibody (200 μg/mouse) were administered via ip injection every 3 to 4 days. Treatment was performed for 14 days. To test the pharmacological inhibition of YAP1 on in vivo tumor growth in NSG and immune competent mice, CDXs were developed using three different mouse derived cancer cell lines (MB49, UPPL596 and BBN 975). Verteporfin was administered interperitoneally at a dose of 50 mg/kg body weight at every other day. […] Tumor mass values also indicate similar trend (FIG. 23C-23E; bottom).

[5] = used clinically, or in clinical trials; cited from earlier work
[6] = target: YAP1 (Homo sapiens, UniProt P46937); conditions: cited from earlier work
Chain of YAP1 (P46937 whole entry, species assumed): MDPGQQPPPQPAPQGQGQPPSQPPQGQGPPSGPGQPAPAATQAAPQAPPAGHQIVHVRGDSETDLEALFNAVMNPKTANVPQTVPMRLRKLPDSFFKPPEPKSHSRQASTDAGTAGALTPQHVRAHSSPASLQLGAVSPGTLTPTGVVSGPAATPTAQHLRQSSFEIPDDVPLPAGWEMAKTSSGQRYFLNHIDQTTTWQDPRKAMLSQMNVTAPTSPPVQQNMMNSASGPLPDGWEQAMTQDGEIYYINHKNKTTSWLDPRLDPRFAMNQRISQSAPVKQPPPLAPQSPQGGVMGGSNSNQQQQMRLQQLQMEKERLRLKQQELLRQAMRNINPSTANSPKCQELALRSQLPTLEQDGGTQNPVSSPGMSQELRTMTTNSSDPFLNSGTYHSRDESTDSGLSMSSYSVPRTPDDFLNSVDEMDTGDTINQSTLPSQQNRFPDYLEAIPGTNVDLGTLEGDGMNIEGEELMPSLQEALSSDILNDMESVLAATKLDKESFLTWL

[7] = system: colorectal cancer cells; conditions: in mice and in cells cultured under hypoxic and nutrient-deprived conditions; cited from earlier work

SMILES: C=Cc1c(C)c2cc3nc(cc4[nH]c(cc5nc(cc1[nH]2)C(C)=C5CCC(=O)O)c(CCC(=O)OC)c4C)[C@@]1(C)C3=CC=C(C(=O)OC)[C@H]1C(=O)OC [verteporfin, 3-[(23S,24R)-14-ethenyl-5-(3-methoxy-3-oxopropyl)-22,23-bis(methoxycarbonyl)-4,10,15,24-tetramethyl-25,26,27,28-tetraazahexacyclo[16.6.1.13,6.18,11.113,16.019,24]octacosa-1,3,5,7,9,11(27),12,14,16,18(25),19,21-dodecaen-9-yl]propanoic acid]
- mRNA expression of YAP1 and downstream targets CTGF and CYR61 [1]: suppressed mRNA expressions of YAP1 and its downstream targets, such as CTGF and CYR61, in a dose-dependent manner
- mRNA expression of YAP1 and downstream targets CTGF and CYR61 ([1]; listed as Verteporfin): suppressed mRNA expression of YAP1, and its downstream targets, CTGF and CYR61, as the drug concentration was increased
- tumor growth [2]: did not significantly affect tumor growth
- cancer stemness (cell proliferation, sphere formation, CSC markers) [3]: inhibit the development of cancer stemness
- tumor growth ([4]; 50 mg/kg body weight i.p. every other day, immune competent mice): significant regression in tumor growth
- CCN1 and CCN2 expression (YAP1 downstream genes) ([4]; RT-qPCR): downregulated
- YAP1 expression in the tumor tissue ([4]; pharmacodynamic analysis): decrease YAP1 expression
- adverse effects [5]: few severe adverse effects were reported
- binding to YAP1 and YAP1-TEAD2 interaction [6]: bind to YAP1 and change its conformation, thereby abrogating its interaction with TEAD2
- killing of colorectal cancer cells by protein oligomer accumulation [7]: selectively killed colorectal cancer cells
